Results: patent publication US20070231919A1, “Method for detecting the effect of a toxic substance using sub-mitochondrial particle” (SAMSUNG ELECTRONICS CO., LTD., priority 2005, published 2007)

System: electron transport system of SMP (sub-mitochondrial particle)
Assay: pH change caused by SMP after contact with the sample and addition of NADH as external electron donor
Type: biochemical
Conditions: for pH change rate: control about 0.17 per minute
Method: First of all, a large quantity of SMPs were prepared by sonicating mitochondria.
Thereafter, the test tubes 1 to 3 were prepared, wherein 10 ml of a 2 mM KCl solution (control solution) was added to the test tube 1, 10 ml of 10% ethanol dissolved in the control solution was added to the test tube 2, and 10 ml of 20% ethanol dissolved in the same was added to the test tube 3. SMPs prepared above were added to each test tube at a final concentration of 1.4 mg/ml.
Next, 0.1 mM of NADH that acts as an external electron donor was added to each test tube at the same time, and the pH change in each test tube was measured for 5 minutes by using a pH meter.
In order to examine whether the method of the present invention is sensitive to only a toxic substance, the experiment was carried out according to the same method as described in Example 1 except that the sample prepared by dissolving 20% sorbitol in a 2 mM KCl solution was used.

| Compound | pH change compared with control (20% sorbitol in 2 mM KCl, SMP 1.4 mg/ml, 0.1 mM NADH, 5 minutes) | pH change rate (10% ethanol (FIG. 5)) | pH increase for 5 minutes (10% ethanol in 2 mM KCl, SMP 1.4 mg/ml, 0.1 mM NADH, pH meter, control increased about 0.9) | pH change for 5 minutes (20% ethanol in 2 mM KCl, SMP 1.4 mg/ml, 0.1 mM NADH, pH meter) | pH change rate (20% ethanol, the relatively strong toxic substance (FIG. 5)) |
| --- | --- | --- | --- | --- | --- |
| OC[C@@H](O)[C@@H](O)[C@H](O)[C@@H](O)CO [sorbitol] | almost identical to that of a control |  |  |  |  |
| CCO [ethanol] |  | lower than 0.1 per minute | about 0.4 | almost no pH change | lower than 0.02 per minute |
